The values below are quoted from earlier work in patent US20220409829A1, “ANTIVIRAL THAT DESTROYS DNA AND/OR RNA OF VIRUSES AND VIROIDS” (priority 2021, published 2022).

The conditions of series [1]: within 10 minutes; inhalation; FIG. 4.
For series [2] the following is noted: FIG. 5.
For series [3] the following is noted: FIG. 5. This is another data set of the same source.
Series [4] deals with bone marrow.

For the molecule `[N-]=[N+]=O` [nitrous oxide], in series [1], the “equilibration (Fa/Fi)” value is “approximately 90%”. Moreover, the minimum alveolar concentration in series [2] is given as 105%. Besides, in series [3], the blood/gas partition coefficient is 0.46. The agranulocytosis entry in series [4] (after 4 days of exposure) is “apparent”. Also, the “Megaloblastic changes in bone marrow” value in series [4] (exposure to anesthetic concentrations for 24 hours) was “observed”.
